Patent US20120004281A1, “RNA Interference Mediated Inhibition of the Nerve Growth Factor Beta Chain (NGFB) Gene Expression Using Short Interfering Nucleic Acid (siNA)” (Merck Sharp & Dohme Corp, priority 2009, published 2012)
[invAb] = inverted abasic unit; m = 2'-O-methyl; r = 2'-OH (RNA); f = 2'-fluoro

test system: NGFβ mRNA; assay: NGFβ mRNA knock-down in Calu-1 cells (RNAiMax transfection, Taqman RT-PCR); type: cell-based, human; settings: human Calu-1 cells, 10 nM siNA, 24 hrs post-transfection, relative to non-targeting control, normalized to GAPDH
Procedure: Calu-1 (human; ATCC cat# HTB-54): Cells were cultured at 37° C. in the presence of 5% CO2 and grown in McCoy's 5a medium supplemented with fetal bovine serum at a final concentration of 10% and 100 μg/mL of streptomycin and 100 U/mL penicillin.
All transfections were performed using RNAiMax (Invitrogen Cat# 13778-150) as per the manufacturer's instructions.
Cells were plated in all wells of a tissue-culture treated, 96-well plate at a final count of 5,000 cells/well in […], of appropriate culture media. Cells were cultured for 24 hours after plating at 37° C. in the presence of 5% CO2.
After 24 hours, complexes containing siNA and RNAiMax were created as follows: A solution of RNAiMax diluted 33-fold in OPTI-MEM was prepared. In parallel, solutions of the siNAs for testing were prepared to a final concentration of 120 nM in OPTI-MEM. After incubation of RNAiMax/OPTI-MEM solution at room temperature for 5 min, an equal volume of the siRNA solution and the RNAiMax solution were added together for each of the siNAs.
This solution was incubated at room temperature for 20 minutes. After incubation, 20 uL of the solution was added to each of the relevant wells.
The final concentration of siNA in each well was 10 nM and the final volume of RNAiMax in each well was 0.3u1.
The time of incubation with the RNAiMax-siNA complexes was 24 hours, unless otherwise indicated. There was no change in media between the transfection and harvesting of the cells unless otherwise indicated.
Dose response curves were carried out in a similar fashion in 96-well plates, while maintaining a constant amount of RNAiMax in each transfection.
RNA was extracted from a 96-well plate using the TaqMan® Gene Expression Cells-to-CT™ Kit (Cat# 4399002) with a modified protocol. Briefly, a 60 uL (1 plate) or 110 uL (2 plates) of the Lysis Solution with DNase I was dispensed into each well of the Lysis Buffer Plate (twin.tec full skirt plate). The lysis buffer and stop plates were stored at 4° C. until the cells were washed.
The plate was spun at 1100 rpm for 5 minutes. The culture medium was aspirated and discarded from the wells of the culture plate. The lysis was performed automatically using a BioMek FX instrument and method. After the Biomek method was completed, the lysis plate was incubated for 2 min. at room temperature. The lysis plate can be stored for 2 hours at 4° C., or at −20° C. or −80° C. for two months.
Each well of the reverse transcription plate required 10 uL of 2× reverse transcriptase Buffer, luL of 20× reverse transcription enzyme and 2 uL of nuclease-free water. The reverse transcription master mix was prepared by mixing 2× reverse transcription buffer, 20× reverse transcription enzyme mix, and nuclease-free water. 13 uL of the reverse transcription master mix was dispensed into each well of the reverse transcription plate (semi-skirted). A separate reverse transcription plate was prepared for each cell plate. The plate was loaded onto a Biomek NX or Biomek FX Dual-96 and the Biomek method was run. The program is programmed to automatically added 7 uL of lysate from the cell lysis procedure described above into each well of the reverse transcription plate. The plate is sealed and spun on a centrifuge (1000 rpm for 30 seconds) to settle the contents to the bottom of the reverse transcription plate. The plate is placed in a thermocycler at 37° C. for 60 min, 95° C. for 5 min, and 4° C. until the plate is removed from the thermocycler. Upon removal, if not used immediately, the plate was frozen at −20° C.
A series of probes and primers were used to detect the various mRNA transcripts of the genes of NGFβ, BDNF and GAPDH in human cell lines. All the Taqman probes and primers for the experiments here-in described were supplied as pre-validated sets by Applied Biosystems, Inc. (see Table 3). The assays were performed on an ABI 7900 instrument, according to the manufacturer's instructions. […]

Substance | % KD in CaLu-1 Cells [%]
25415-DC: siNA duplex, NGFβ target site 609; sense B ccAccGccAcAGAcAucAA TTB (SEQ ID NO: 55), antisense UUGAuGucuGuGGcGGuGGUU (SEQ ID NO: 56) (sense CCACCGCCACAGACAUCAATT; antisense UUGAUGUCUGUGGCGGUGGUU; sense: DNA at AGT, 2'-fluoro at CU, [invAb] at 5' end, 3' end, backbone not given here; antisense: sugars from the 5' end rrrmfmfffmfmmfmmfmmmm, backbone not given here) | 61
25402-DC: siNA duplex, NGFβ target site 651; sense B GAGAGGuGAAcAuuAAcAA TTB (SEQ ID NO: 29), antisense UUGuuAAuGuucAccucucUU (SEQ ID NO: 30) (sense GAGAGGUGAACAUUAACAATT; antisense UUGUUAAUGUUCACCUCUCUU; sense: DNA at AGT, 2'-fluoro at CU, [invAb] at 5' end, 3' end, backbone not given here; antisense: sugars from the 5' end rrrffmmfmfffmffffffmm, backbone not given here) | 53
25420-DC: siNA duplex, NGFβ target site 510; sense B AcAGGAcucAcAGGAGcAA TTB (SEQ ID NO: 65), antisense UUGcuccuGuGAGuccuGuUU (SEQ ID NO: 66) (sense ACAGGACUCACAGGAGCAATT; antisense UUGCUCCUGUGAGUCCUGUUU; sense: DNA at AGT, 2'-fluoro at CU, [invAb] at 5' end, 3' end, backbone not given here; antisense: sugars from the 5' end rrrfffffmfmmmffffmfmm, backbone not given here) | 44
25423-DC: siNA duplex, NGFβ target site 519; sense B AcAGGAGcAAGcGGucAuc TTB (SEQ ID NO: 71), antisense GAUGAccGcuuGcuccuGuUU (SEQ ID NO: 72) (sense ACAGGAGCAAGCGGUCAUCTT; antisense GAUGACCGCUUGCUCCUGUUU; sense: DNA at AGT, 2'-fluoro at CU, [invAb] at 5' end, 3' end, backbone not given here; antisense: sugars from the 5' end rrrmmffmfffmfffffmfmm, backbone not given here) | 40
25427-DC: siNA duplex, NGFβ target site 516; sense B cucAcAGGAGcAAGcGGuc TTB (SEQ ID NO: 79), antisense GACcGcuuGcuccuGuGAGUU (SEQ ID NO: 80) (sense CUCACAGGAGCAAGCGGUCTT; antisense GACCGCUUGCUCCUGUGAGUU; sense: DNA at AGT, 2'-fluoro at CU, [invAb] at 5' end, 3' end, backbone not given here; antisense: sugars from the 5' end rrrfmfffmfffffmfmmmmm, backbone not given here) | 6
25410-DC: siNA duplex, NGFβ target site 451; sense B ccGuGAAGcuGcAGAcAcu TTB (SEQ ID NO: 45), antisense AGUGucuGcAGcuucAcGGUU (SEQ ID NO: 46) (sense CCGUGAAGCUGCAGACACUTT; antisense AGUGUCUGCAGCUUCACGGUU; sense: DNA at AGT, 2'-fluoro at CU, [invAb] at 5' end, 3' end, backbone not given here; antisense: sugars from the 5' end rrrmfffmfmmffffmfmmmm, backbone not given here) | 70
25406-DC: siNA duplex, NGFβ target site 755; sense B cAcuGGAAcucAuAuuGuA TTB (SEQ ID NO: 37), antisense UACAAuAuGAGuuccAGuGUU (SEQ ID NO: 38) (sense CACUGGAACUCAUAUUGUATT; antisense UACAAUAUGAGUUCCAGUGUU; sense: DNA at AGT, 2'-fluoro at CU, [invAb] at 5' end, 3' end, backbone not given here; antisense: sugars from the 5' end rrrmmfmfmmmffffmmfmmm, backbone not given here) | 34
25412-DC: siNA duplex, NGFβ target site 267; sense B cccAAGcccAcuGGAcuAA TTB (SEQ ID NO: 49), antisense UUAGuccAGuGGGcuuGGGUU (SEQ ID NO: 50) (sense CCCAAGCCCACUGGACUAATT; antisense UUAGUCCAGUGGGCUUGGGUU; sense: DNA at AGT, 2'-fluoro at CU, [invAb] at 5' end, 3' end, backbone not given here; antisense: sugars from the 5' end rrrmfffmmfmmmfffmmmmm, backbone not given here) | −3
25421-DC: siNA duplex, NGFβ target site 675; sense B uAuucAAAcAGuAcuuuuu TTB (SEQ ID NO: 67), antisense AAAAAGuAcUGuuuGAAuAUU (SEQ ID NO: 68) (sense UAUUCAAACAGUACUUUUUTT; antisense AAAAAGUACUGUUUGAAUAUU; sense: DNA at AGT, 2'-fluoro at CU, [invAb] at 5' end, 3' end, backbone not given here; antisense: sugars from the 5' end rrrmmmfmfmmfffmmmfmmm, backbone not given here) | 56
25426-DC: siNA duplex, NGFβ target site 676; sense B AuucAAAcAGuAcuuuuuu TTB (SEQ ID NO: 77), antisense AAAAAAGuAcuGuuuGAAuUU (SEQ ID NO: 78) (sense AUUCAAACAGUACUUUUUUTT; antisense AAAAAAGUACUGUUUGAAUUU; sense: DNA at AGT, 2'-fluoro at CU, [invAb] at 5' end, 3' end, backbone not given here; antisense: sugars from the 5' end rrrmmmmfmffmfffmmmfmm, backbone not given here) | 38
